What follows are compounds tested against Histamine H3 receptor (Homo sapiens, UniProt Q9Y5N1) (assay: Displacement of [125I]Iodoproxyfan from human histamine H3 receptor expressed in HEK293 cells after 60 mins by scintillation counting).
Format: cell-based

Histamine H3 receptor, sequence (Q9Y5N1 whole entry): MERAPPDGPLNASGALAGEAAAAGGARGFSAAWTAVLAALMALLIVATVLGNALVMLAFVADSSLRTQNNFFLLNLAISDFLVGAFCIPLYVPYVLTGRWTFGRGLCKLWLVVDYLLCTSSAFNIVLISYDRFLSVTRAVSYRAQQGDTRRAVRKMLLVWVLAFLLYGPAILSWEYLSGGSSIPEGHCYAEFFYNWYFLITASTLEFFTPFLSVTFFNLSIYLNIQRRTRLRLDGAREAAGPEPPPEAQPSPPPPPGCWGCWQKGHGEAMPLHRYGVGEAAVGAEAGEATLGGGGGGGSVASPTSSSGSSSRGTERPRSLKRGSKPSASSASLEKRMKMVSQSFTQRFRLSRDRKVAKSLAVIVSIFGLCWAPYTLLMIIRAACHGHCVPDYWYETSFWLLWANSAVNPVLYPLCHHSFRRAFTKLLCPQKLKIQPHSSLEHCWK

SMILES | Ki
O=C1NC(=O)/C(=C/c2ccc(OCCCN3CCCCC3)cc2)S1 | 7.94 nM
O=C1NC(=O)C(Cc2ccc(OCCCN3CCCCC3)cc2)S1 (centres undefined) | 50.1 nM
O=C1NC(=S)S/C1=C\c1ccc(OCCCN2CCCCC2)cc1 | 5.01 nM

Further compounds by falling Ki, results first:

Ki | SMILES
10 nM | O=C(O)C1CSC(c2ccc(OCCCN3CCCCC3)cc2)N1 (centres undefined)
7.94 nM | c1cc(C2=NCCN2)ccc1OCCCN1CCCCC1
3.98 nM | COC(=O)C1CSC(c2ccc(OCCCN3CCCCC3)cc2)N1 (centres undefined)
2 nM | O=C(O)c1cn(C2CC2)c2cc(N3CCN(Cc4ccc(OCCCN5CCCCC5)cc4)CC3)c(F)cc2c1=O
0.316 nM | CN(CCC=C1c2ccccc2CCc2ccccc21)Cc1ccc(OCCCN2CCCCC2)cc1

The compounds below were run against T1, Peroxisome proliferator-activated receptor alpha (Homo sapiens, UniProt Q07869) (assay: Agonist activity at human recombinant PPARalpha LBD expressed in african green monkey COS7 cells coexpressing GAL4 by luciferase reporter gene transactivation assay).
T1 sequence (Q07869 whole entry): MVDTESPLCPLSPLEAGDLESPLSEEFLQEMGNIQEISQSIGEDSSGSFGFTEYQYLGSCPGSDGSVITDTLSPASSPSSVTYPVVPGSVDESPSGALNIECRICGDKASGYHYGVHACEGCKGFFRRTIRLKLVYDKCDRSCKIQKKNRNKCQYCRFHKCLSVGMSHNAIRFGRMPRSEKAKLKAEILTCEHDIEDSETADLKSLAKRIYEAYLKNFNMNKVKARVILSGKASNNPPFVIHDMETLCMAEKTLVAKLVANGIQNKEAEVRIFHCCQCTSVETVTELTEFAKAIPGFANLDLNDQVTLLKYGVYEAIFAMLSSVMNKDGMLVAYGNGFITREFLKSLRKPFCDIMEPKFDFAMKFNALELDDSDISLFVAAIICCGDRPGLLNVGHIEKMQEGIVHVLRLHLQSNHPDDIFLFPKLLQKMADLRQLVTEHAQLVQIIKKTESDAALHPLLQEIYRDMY
Format: functional, cell-based, COS-7

EC50 | SMILES
> 10000 nM | O=C1NC(=S)S/C1=C\c1ccc(OCCCN2CCCCC2)cc1
